Structures are written as SMILES. The source made the active and inactive calls. No cut-off for these calls is given here. Some results are limits rather than exact numbers.

Data set [1] can be described thus: Selectivity index, ratio of IC50 for African green monkey Vero cells to IC50 for chloroquine-sensitive Plasmodium falciparum D6 infected in human RBC. Format: toxicity. Conditions: read-out: Ratio IC50.
The subject of data set [2] is Plasmodium falciparum. In words: Antiplasmodial activity against chloroquine-sensitive Plasmodium falciparum D6 infected in human RBC assessed as decrease in parasite viability after 72 hrs by LDH assay. Format: functional. Particulars: D6, 72 h.
Data set [3] relates to Plasmodium falciparum. The data set can be described thus: Antiplasmodial activity against chloroquine-resistant Plasmodium falciparum W2 infected in human RBC assessed as decrease in parasite viability after 72 hrs by LDH assay. Format: functional. Conditions: W2, 72 h.
Data set [4] relates to Vero. The data set can be described thus: Cytotoxicity against African green monkey Vero cells after 48 hrs by neutral red uptake assay. It counts as cell-based. Particulars: Chlorocebus sabaeus.
A short description of data set [5]: Selectivity index, ratio of IC50 for African green monkey Vero cells to IC50 for chloroquine-resistant Plasmodium falciparum W2 infected in human RBC. It counts as toxicity. Particulars: read-out: Ratio IC50.
The test system of data set [6] is Plasmodium falciparum. In words: Potency index, ratio of chloroquine IC50 to compound IC50 for chloroquine-resistant Plasmodium falciparum W2. Format: functional.
For data set [7], the system named is Heme. In words: Binding affinity to monomeric heme (unknown origin) assessed as 1:1 stoichiometry for heme-compound complex at 10 uM at pH 5.6 and 7.4 by Job's plot analysis.
Data set [8] deals with Heme. The data set can be described thus: Binding affinity to monomeric heme (unknown origin) assessed as decrease in intensity of soret band at 402 nm at pH 5.6 and 7.4 by spectrophotometric titration method.
Data set [9] is described as follows: Binding affinity to dimeric heme (unknown origin) assessed as change in absorbance band intensity at 362 nm at 10 uM at pH 5.6 by spectrophotometric titration method.

A word on the IC50: it is the concentration at which inhibition is half-maximal. As for `Clc1ccc2c(NCCCn3cnc4c(N5CCN(c6ccccc6)CC5)nc(Cl)nc43)ccnc2c1`, the selectivity ratio in [1] is > 47.6; in data set [5] it was > 17.7. Further, the figures for the IC50 in data set [2], in data set [3] and in data set [4] were 187 nM, 504 nM and > 8900 nM, respectively.
For `Clc1ccc2c(NCCCn3cnc4c(N5CCOCC5)nc(Cl)nc43)ccnc2c1`, in that order: > 12.5, > 9.1, 833 nM, 1150 nM and > 10400 nM.
For `Clc1ccc2c(NCCn3cnc4c(N5CCCC5)nc(Cl)nc43)ccnc2c1`, in that order: > 25, > 11.3, 445 nM, 984 nM and > 11100 nM.
Take `CCN1CCN(c2nc(Cl)nc3c2ncn3CCNc2ccnc3cc(Cl)ccc23)CC1`: the selectivity ratio was > 164 in data set [1] and > 125 in data set [5]. Moreover, the IC50 in data set [2] is 61 nM; in data set [3], 80 nM; in data set [4], > 10100 nM. In addition, the “Ratio IC50” value in data set [6] worked out at 6. For the same compound, the outcome in data set [7], in data set [8] and in data set [9] was Active.
Turning to `CCN(CC)c1nc(Cl)nc2c1ncn2CCNc1ccnc2cc(Cl)ccc12`, the values for the selectivity ratio in [1] and in data set [5] were > 2.4 and > 1.6, respectively. Also, the IC50 in data set [2] was 4650 nM; in [3], 6760 nM; in data set [4] it was > 11100 nM.
In the same order, the values of `Clc1ccc2c(NCCn3cnc4c(N5CCOCC5)nc(Cl)nc43)ccnc2c1` are > 53.4, > 47.4, 201 nM, 226 nM and > 10700 nM.
Take `CCN(CC)c1nc(Cl)nc2c1ncn2CCCNc1ccnc2cc(Cl)ccc12`: the selectivity ratio in data set [1] is > 19.3; in [5] it was > 10.9. The IC50 is 556 nM in [2], 983 nM in [3] and > 10700 nM in data set [4].
For `Clc1ccc2c(NCCn3cnc4c(N5CCCCCC5)nc(Cl)nc43)ccnc2c1`, in that order: > 24.9, > 14.3, 419 nM, 729 nM and > 10400 nM.
In the same order, the values of `CN(C)c1nc(Cl)nc2c1ncn2CCNc1ccnc2cc(Cl)ccc12` are > 46.6, > 32.8, 254 nM, 361 nM and > 11900 nM.
In the case of `C[C@@H]1CC[C@H]2[C@@H](C)C(=O)O[C@@H]3O[C@@]4(C)CC[C@@H]1[C@]32OO4` [ARTEMISININ], the IC50 in [2] is 25 nM; in data set [4], > 16900 nM.
For `CN(C)c1nc(Cl)nc2c1ncn2CCCNc1ccnc2cc(Cl)ccc12`, the selectivity ratio in [1] was > 45; in [5], > 10.5. Moreover, the IC50 in [2] is 254 nM; in data set [3], 1090 nM; in data set [4], > 11500 nM.
`Clc1ccc2c(NCCn3cnc4c(N5CCCCC5)nc(Cl)nc43)ccnc2c1`: the figures for the selectivity ratio in data set [1] and in [5] were > 31.1 and > 4.4, respectively. Also, the IC50 in data set [2] is 347 nM; in [3], 2450 nM; in [4], > 10800 nM.
In the same order, the values of `CN1CCN(c2nc(Cl)nc3c2ncn3CCCNc2ccnc3cc(Cl)ccc23)CC1` are > 145, > 54.5, 69 nM, 185 nM and > 10100 nM.
For `CCN1CCN(c2nc(Cl)nc3c2ncn3CCCNc2ccnc3cc(Cl)ccc23)CC1`, in that order: > 101, > 49.5, 97 nM, 198 nM and > 9830 nM.
Consider `CCN(CC)CCCC(C)Nc1ccnc2cc(Cl)ccc12` (configuration not stated) [CHLOROQUINE], for which the IC50 in [4] was > 14900 nM.
Turning to `Clc1ccc2c(NCCn3cnc4c(N5CCN(c6ccccc6)CC5)nc(Cl)nc43)ccnc2c1`, the results for the selectivity ratio in [1] and in data set [5] were 26.2 and 9.4, respectively. The IC50 in data set [2] amounted to 154 nM; in data set [3], 428 nM; in [4] it was 4040 nM.
In the same order, the values of `Clc1ccc2c(NCCCn3cnc4c(N5CCCCCC5)nc(Cl)nc43)ccnc2c1` are > 8.3, > 4.3, 1230 nM, 2380 nM and > 10100 nM.
Turning to `Clc1ccc2c(NCCCn3cnc4c(N5CCCC5)nc(Cl)nc43)ccnc2c1`, the values for the selectivity ratio in data set [1] and in data set [5] were > 10 and > 6.1, respectively. Also, the IC50 in [2] is 1080 nM; in data set [3], 1760 nM; in [4], > 10800 nM.
In the same order, the values of `Clc1ccc2c(NCCCn3cnc4c(N5CCSCC5)nc(Cl)nc43)ccnc2c1` are > 22.6, > 5.6, 446 nM, 1800 nM and > 10100 nM.
Take `Clc1ccc2c(NCCn3cnc4c(N5CCSCC5)nc(Cl)nc43)ccnc2c1`: the selectivity ratio in [1] came to 19.5; in data set [5], 9.6. Moreover, the IC50 in [2] was determined as 292 nM; in data set [3], 590 nM; in data set [4], 5680 nM.
For `Clc1ccc2c(NCCCn3cnc4c(N5CCCCC5)nc(Cl)nc43)ccnc2c1`, in that order: > 3.1, > 2.8, 3330 nM, 3760 nM and > 10400 nM.
For `CN1CCN(c2nc(Cl)nc3c2ncn3CCNc2ccnc3cc(Cl)ccc23)CC1`, in that order: > 124, > 85.4, 84 nM, 122 nM and > 10400 nM.

The values are drawn from ChEMBL document CHEMBL3992507, “Design, synthesis and evaluation of 4-aminoquinoline-purine hybrids as potential antiplasmodial agents” (Eur J Med Chem, 2017).
